Measured values published in article PMC7754785 (ACS Omega, 2020).
Where “and” joins values, the source holds several entries; their conditions need not be identical. Equal entries are not always repeated.

Key:
[1] = biological target: Mpro from SARS CoV-2 (Severe acute respiratory syndrome coronavirus 2, UniProt P0DTD1); assay: Surface plasmon resonance binding to immobilized Mpro; details: dissociation constant KD, SPR, Mpro immobilized on CM-5 chip; KD = koff/kon
[2] = biological target: T1, Mpro (Severe acute respiratory syndrome coronavirus 2, UniProt P0DTD1); assay: Universal protease activity assay with casein as substrate; type: biochemical, SARS-CoV-2; details: IC50, 10 μM Mpro, 150 μM casein, phosphate buffer pH 7.5, 37 °C
[3] = biological target: T1, Mpro; details: previous computational studies in our lab; cited from earlier work
[4] = biological target: T1, Mpro; details: previous computational studies in our lab; cited from earlier work; remark: listed apart in the source

Compound | Kd [1] | IC50 [2] [µM] | docking score [3] [kcal/mol] | MM-PBSA binding free energy [4] [kcal/mol]
Nc1ccn([C@H]2C[C@H](O)[C@@H](COP(=O)(O)OP(=O)(O)OP(=O)(O)OP(=O)(O)OC[C@H]3O[C@@H](n4ccc(=O)[nH]c4=O)[C@H](O)[C@@H]3O)O2)c(=O)n1 [DB04983, Denufosol] | 1400 µM and 1440 µM | 1300 |  | 
CSCCNc1nc(SCCC(F)(F)F)nc2c1ncn2[C@@H]1O[C@H](COP(=O)(O)OP(=O)(O)C(Cl)(Cl)P(=O)(O)O)[C@@H](O)[C@H]1O [cangrelor] | 700 µM and 640 µM | 900 | -12.28 | 
CC(C)c1nc(CN(C)C(=O)N[C@@H](CCN2CCOCC2)C(=O)N[C@H](CC[C@H](Cc2ccccc2)NC(=O)OCc2cncs2)Cc2ccccc2)cs1 [cobicistat] | ~2.1 µM and 2.1 µM | ~6.7 | -12.31 | -11.41
